Results reported in patent US8541240B2, “Colorimetric and fluorimetric fluoride sensing” (Florida State University Research Foundation, Inc., priority 2010, dated 2013).

Tests used:
[1] = Visual color change and UV/Visible spectroscopy during F^− titration; conditions: for visible color change during F^− titration: solvents with up to 15% H2O, orange ≦5 equiv, pink >5 equiv F^−
Description: (§1) Unless otherwise indicated, the following procedure was used for all examples involving titration experiments. Generally, titrant solutions comprising the fluoride receptor reagents (e.g., reagents N1, SR, and LR) were maintained at a concentration of 10 μm. Titrand solutions containing fluoride anion were 30 times more concentrated (e.g., 300 μm) to minimize dilution effects during titration. Unless otherwise indicated, the solvent for all solutions was dimethyl sulfoxide (DMSO).
(§2) Several experiments were conducted to observe the visible color changes that occur when NDI-based receptor reagents N1, SR, and LR were titrated with solutions containing F^− ions. Titrations were carried out using F^− in a number of solvents, including aqueous dimethyl sulfoxide (DMSO), dimethylformamide (DMF), dimethylacetamide (DMAc), acetonitrile, acetone, and tetrahydrofuran, with each solution containing up to 15% of H2O. Otherwise, the titrations followed the standard titration procedure outlined above.
(§3) As indicated above, UV/Visible light (UV/Vis) spectra were recorded on a PerkinElmer Lambda-25 UV/Vis spectrophotometer. For each experiment, receptor N1, SR, and CR concentrations were maintained at 10 μM. Titration of the F^− ion was conducted using the standard titration procedure outlined above.

[2] = Isothermal titration calorimetry (ITC), Cl^− recognition; type: binding; conditions: for K1 (association constant) / ΔG1: X^− = Cl^−, ITC, DMSO, 298 K
Experimental: (§4) Isothermal titration calorimetry (ITC) studies were conducted on a MICROCAL VP-ITC ultra-sensitive isothermal titration microcalorimeter. The VP-ITC unit, with a precise temperature control set at 25.0±0.1° C., directly measured heat evolved or absorbed in solution as a result of […] of reactant. For control, a reference cell was filled with dimethyl sulfoxide (DMSO). Titrations were run at 25° C.
(§5) Before the experiment, all the samples were degassed at 25° C. for 10 minutes us the THERMOVAC (a vacuum thermostating system). Each of 40 injections of 6 μL of a halide solution was delivered into a solution (1 mM) of reagent LS over 12 seconds by a syringe spinning at 270 rpm, with a 240 second equilibration time between injections. The instrument was controlled by MICROCAL OBSERVER software comprising a 16-bit A/D converter board for data acquisition, and a second interface board for calorimetric control. Heats of dilution were taken into account using data from control experiments, in which DMSO was injected into reagent LS in DMSO solution.
(§6) Using these characteristic ITC patterns, one could determine whether a given test solution contains F^− only or, alternatively, whether the test solution contains is a mixture of F^− with another halide anion.
In addition to the above species, the same experimental procedure was followed with control reagent CR.

[3] = Fluorescence spectroscopy during F^− titration; conditions: for selectivity for F^− over other halide ions: color and emission spectra, Cl^−, Br^−, I^− up to 30 molar equivalents, DMSO
Description: as §1
Fluorescence spectroscopy was introduced to determine the sensitivity of NDI-based F^− ion sensors at very low concentrations. Fluorescence spectra were collected on a HORIBA JOBIN YVON FLUOROMAX-4 spectrofluorometer.

[4] = Visual color change and UV/Visible spectroscopy during titration with other anions
Description: as §1, §2, §3
Similarly, FIG. 5, panel (c) is a representation of the data obtained when receptor reagent N1 was titrated with various other […], including Cl^−, Br^−, I^−, NO3^−, acetate anion (AcO^−), and H2PO4^−.

[5] = Fluoride anion sensing in toothpastes (UV/Vis); conditions: 10 μM receptor, wet DMSO
Experimental: For the detection of F^− ion in toothpastes, small samples (1 gram) of each of two toothpastes (COLGATE anticavity fluoride toothpaste and ORAJEL toddler fluoride-free toothpaste) were extracted separately in 2 mL of aqueous DMSO. The COLGATE toothpaste contained 0.24% (w/v) NaF. Each resulting suspension was filtered to obtain colorless clear solution, which were separately added to 10 μM SR solutions.
The black trace represents SR without toothpaste; the light trace, SR with anticavity adult toothpaste containing 0.24% NaF; and the medium trace, SR with F^− free toddler toothpaste.

[6] = Isothermal titration calorimetry (ITC), F^− recognition; type: binding; conditions: for K1 (association constant) / K2 (association constant, second binding process) / ΔG1 / ΔG2: X^− = F^−, DMSO, 298 K
Experimental: as §4, §5
From these experiments, it has been confirmed that a 1:[…] (reagent LS:F^− anion) type of stoichiometry occurs during F^− titration. Initially, π-anion-π interaction takes place, at concentrations up to one molar equivalent of F^− ion. At concentrations greater than one equivalent of F^−, the NH proton becomes directly involved in a second binding process through hydrogen bonding, a conclusion which is supported by the ^1H NMR experiments described above. The association constants for these two processes have been determined as follows: K1=4.11 10^4 M^−1 and K2=2.69 10^4 M^−1. […]

[7] = Isothermal titration calorimetry (ITC), I^− recognition; type: binding; conditions: solution with DMSO
Experimental: as §4, §5, §6

[8] = Isothermal titration calorimetry (ITC), Br^− recognition; type: binding; conditions: solution with DMSO
Experimental: as §4, §5, §6

Cyclic voltammetry = type: physicochemical; conditions: 1 mM in 0.1 M TBAPF6/DMF, Ag/AgCl reference, 100 mV/s, room temperature
Experimental: Cyclic voltammetry (CV) was conducted on a PRINCETON APPLIED RESEARCH (PAR) VERSASTAT-3-200 potentiostat/galvanostat instrument using a standard electrochemical cell, consisting of a Pt-disk working electrode, Pt-wire counter electrode, and Ag/AgCl (3 N aq. NaCl) reference electrode. CV was recorded at 1 mM of reagent N1 in 0.1 M TBAPF6/DMF supporting electrolyte solution at room temperature at 100 mV/s scan rate (FIG. 11).

SMILES: O=C(Nc1cccc(N2C(=O)c3ccc4c5c(ccc(c35)C2=O)C(=O)N(c2ccncc2)C4=O)c1)c1cccc(C(=O)Nc2cccc(N3C(=O)c4ccc5c6c(ccc(c46)C3=O)C(=O)N(c3ccncc3)C5=O)c2)n1 [SR]
- visible color change during F^− titration [1]: immediately changed color in a distinct two-step pattern
- color change with F^− in the presence of Cl^− ([1]; titrated with F^− in the presence of 30 molar equivalents of Cl^−): showed the characteristic two-step color change associated with F^− even in the presence of Cl^−
- K1 (association constant) [2]: 1730 M⁻¹
- ΔG1 [2]: -4.41 kcal/M
- selectivity for F^− over other halide ions [3]: excellent selectivity
- amplification of a new peak at 465 nm ([3]; receptor 1 nM in DMSO, F^− 30 nM, 381 nm excitation): 20 fold
- optical response to Cl^− alone ([4]; Cl^−, 30 molar equivalents): no optical response
- response to F^− containing toothpaste solution (COLGATE, 0.24% NaF) [5]: turned light orange
- response to F^−-free ORAJEL toothpaste [5]: did not change the spectrum of the receptor
- K1 (association constant) [6]: 9.03e+08 M⁻¹
- K2 (association constant, second binding process) [6]: 442000 M⁻¹
- ΔG1 [6]: -12.20 kcal/M
- ΔG2 [6]: -7.70 kcal/M

SMILES: O=C(Nc1cccc(NC(=O)c2cccc(C(=O)Nc3cccc(NC(=O)c4ccncc4)c3)c2)c1)c1ccncc1 [CR, reference compound]
- UV/Vis spectroscopic / colorimetric response to F^− titration ([1]; receptor 10 μM, DMSO): virtually no colorimetric response
- K1 (association constant) [2]: 100 M⁻¹
- ΔG1 [2]: -2.71 kcal/M
- visible color change in response to anions ([4]; any anion): did not change color in response to any anion
- K1 (association constant) [6]: 259 M⁻¹
- ΔG1 [6]: -3.28 kcal/M

SMILES: O=C(Nc1cccc(NC(=O)c2cccc(C(=O)Nc3cccc(NC(=O)c4ccc(N5C(=O)c6ccc7c8c(ccc(c68)C5=O)C(=O)N(c5ccncc5)C7=O)cc4)c3)c2)c1)c1ccc(N2C(=O)c3ccc4c5c(ccc(c35)C2=O)C(=O)N(c2ccncc2)C4=O)cc1 [LR]
- visible color change during F^− titration [1]: immediately changed color in a distinct two-step pattern
- association constant Ka [7]: 105 M⁻¹
- association constant Ka ([2]; Cl^−, solution with DMSO): 319 M⁻¹
- K1 (association constant) [2]: 319 M⁻¹
- ΔG1 [2]: -3.42 kcal/M
- association constant Ka [8]: 145 M⁻¹
- selectivity for F^− over other halide ions [3]: excellent selectivity
- K1 (association constant) [6]: 41100 M⁻¹
- K2 (association constant, second binding process) [6]: 26900 M⁻¹
- ΔG1 [6]: -6.29 kcal/M
- ΔG2 [6]: -6.04 kcal/M
- F^− binding in presence of excess Cl^− ion ([6]; excess of Cl^−): binds F^− selectively

SMILES: O=C1c2ccc3c4c(ccc(c24)C(=O)N1c1ccncc1)C(=O)N(c1ccncc1)C3=O [N1]
- visible color change during F^− titration [1]: immediately changed color in a distinct two-step pattern
- K1 (association constant) [2]: 53 M⁻¹
- ΔG1 [2]: -2.35 kcal/M
- E1 ½, one-electron reduction to radical anion (Cyclic voltammetry): −342 mV
- E2 ½, reduction to dianion (Cyclic voltammetry): −804 mV
- increase of the 465 nm emission peak ([3]; receptor 10 μM in DMSO, 30 equiv. of F^−): 5.5 fold
- optical response to other anions ([4]; Cl^−, Br^−, I^−, NO3^−, AcO^−, H2PO4^−, UV/Vis): did not show any optical response
- K1 (association constant) [6]: 8470 M⁻¹
- ΔG1 [6]: -5.36 kcal/M
